In one assay the test system is mice. The assay is described as follows: Haloperidol-induced catalepsy model. It counts as in vivo, mouse. The note with it: for Haloperidol-induced catalepsy (significantly reduced): FIG. 17 (24 hours after administration). As for the experimental part: The potential anti-akinetic effect of psilocybin in mice was investigated. Psilocybin (1 mg/kg, 3 mg/kg, or 10 mg/kg), chlorstyril caffeine (CSC), or vehicle was administered one hour, 24 hours, or one week prior to administration of haloperidol.
After administration of haloperidol, a catalepsy test was administered to each mouse. During the test, the forelimbs of the mice were placed on a catalepsy apparatus. The latency time was defined as the time necessary for the mouse to put the forelimbs on the table. The cut off time was set as 3 minutes. Catalepsy was evaluated every 45 minutes for 270 minutes after the Haloperidol injection.

The subject of a further assay is healthy participants. The assay is described as follows: Phase 1 study: Rapid Visual Information Processing (RVPA). The note with it: Treatment V6 Day 28 (remote). It is filed as in vivo, human. The source says: In some embodiments, the Rapid Visual Information Processing (RVP) test is utilized to evaluate the safety and efficacy of psilocybin. The RVP is a measure of sustained attention outputting measures of response accuracy, target sensitivity and reaction times. In this test, the study subject is required to monitor a stream of digits from 2 to 9 for specific sequences (e.g., 3-5-7) and to acknowledge detection of the sequence by touching the on-screen response button as quickly as possible after presentation of the third digit. Digits are presented pseudorandomly to create the possibility of ‘false alarm’ responses in which the first 2 digits of a sequence are not followed by a true target, e.g., when 3 is followed by a 5, but not then by a 7. In order to complete the task successfully study subjects must sustain attention to the white box in which the digits appear. Performance on this task is measured by the speed of response to the presentation of the final digit of a target, as well as the study subject's ability to detect specified sequences. […]
To assess the effects of psilocybin on cognitive processing, a clinical trial testing psilocybin in healthy participants was performed. […] Rapid visual information processing (RVP), a sensitive measure of sustained attention, was assessed twice prior to dosing (Day 0): during screening (Day −2) and at baseline (Day −1). […]

Consider `CN(C)CCc1c[nH]c2cccc(OP(=O)(O)O)c12` [Psilocybin, psilocybin], for which the “Haloperidol-induced catalepsy (significantly reduced)” value with mice (1 mg/kg) came out at 90 s; with mice (3 mg/kg), 60 s; in the assay with mice (10 mg/kg) it was 75 s. In addition, the “Start of positive effect on catalepsy after haloperidol” value in the assay with mice (1 mg/kg, FIG. 18 (24 hours after administration)) is 135 min; with mice (10 mg/kg, FIG. 18 (24 hours after administration)), 90 min. Also, the “Time after haloperidol injection of decrease in descent latency” value in the assay with mice (1 mg/kg, one hour prior to the test) was determined as 270 min. Also, in the assay with mice (3 mg/kg, 1 week prior to the test), the “Time after haloperidol from which descent latency is significantly decreased” value is at least 224 min. In addition, in the assay on mice (3 mg/kg, FIG. 18 (24 hours after administration)), the “Start of reduction in descent latency after haloperidol, lasting to 270 minutes” value worked out at 45 min. Further, the “Time after haloperidol injection from which descent latency is significantly decreased” value is at least 225 min with mice (3 mg/kg, one hour prior to the test) and at least 180 min in the assay on mice (10 mg/kg, one hour prior to the test). Besides, the results for the “RVPA difference of least squares mean compared to placebo group, LS mean Estimate” value in the assay with healthy participants (10 mg single oral) and with healthy participants (25 mg single oral) were 0.01096 and 0.01225, respectively.

Source of the values: US12377112B2, “Methods of treating neurocognitive disorders, chronic pain and reducing inflammation” (priority 2019, dated 2025).
